Converted amounts (≈) assume the structure as drawn. Where two headings read alike, the source gives them in different places. *1 amine or outer side, *2 acyl side, *3 side chain or, on linkers, in order; H or OH if unused. Where a SMILES comes first, the peptide text is derived from it. Bridges are numbered along the chain shown (N, C = ends). [ ]: non-standard residue; d: D form. The star is where a group is joined. ξ: configuration not given here. Phe(3R-OH) = O=C([C@@H](N[*:1])[C@H](O[*:3])c1ccccc1)[*:2]; Asn(3S-OH) = NC(=O)[C@@H](O)[C@H](N)C(=O)O; Leu(3R-OH) = CC(C)[C@@H](O)[C@H](N)C(=O)O; Ala(SiMe3) = C[Si](C)(C)C[C@H](N)C(=O)O; d(tBuAla) = CC(C)(C)C[C@@H](N)C(=O)O; tBuAla = CC(C)(C)C[C@H](N)C(=O)O; aThr = C[C@H](O)[C@H](N)C(=O)O; ξIle = CC[C@H](C)C(N)C(=O)O; OtBu = CC(C)(C)O*
Legend:
[1] = tested on: Staphylococcus aureus 133; format: cell-based
Procedure: (§1) Determination of the Minimum Inhibitory Concentration (MIC):
(§2) The MIC is determined in the liquid dilution test in accordance with the NCCLS guidelines. Overnight cultures of Staphylococcus aureus 133, Enterococcus faecalis 27159, E. faecium 4147 and Streptococcus pneumoniae G9a are incubated with the desired test substances in a 1:2 dilution series. The MIC determination is carried out with a cell count of 10^5 microbes per ml in Isosensitest medium (Difco, Irvine/USA), with the exception of S. pneumoniae which is tested in BHI broth (Difco, Irvine/USA) with 10% bovine serum with a cell count of 10^6 microbes per ml. The cultures are incubated at 37° C. for 18-24 hours, S. pneumoniae in the presence of 10% CO2.
(§3) The MIC is defined as the lowest concentration of each substance at which visible bacterial growth no longer occurs. The MIC values are reported in μg/ml.

[2] = tested on: Streptococcus pneumoniae G9a; format: cell-based
Procedure: as §1, §2, §3

E. faecium L4001 = format: cell-based, Enterococcus faecium
E. faecalis ICB 27159 = format: cell-based, Enterococcus faecalis
Procedure: as §1, §2, §3

[3] = Isosensitest medium, 10^5 microbes per ml, 37° C., 18-24 hours

Row | SMILES | MIC S. aureus 133 [1]; 133 [µg/mL] | MIC S. pneumoniae ([2]; G9a) [µg/mL] | MIC E. faecium L4001 (E. faecium L4001; L4001) [µg/mL] | MIC E. faecalis ICB 27159 (E. faecalis ICB 27159; ICB 27159) [µg/mL] | MIC S. aureus 133 [1, 3] [µg/mL] | MIC S. pneumoniae ([2]; BHI broth with 10% bovine serum, 10^6 microbes per ml, 10% CO2, 37° C., 18-24 hours) [µg/mL] | MIC E. faecium L4001 (E. faecium L4001; [3]) [µg/mL] | MIC E. faecalis ICB 27159 (E. faecalis ICB 27159; [3]) [µg/mL]
1 | CC[C@H](C)[C@@H]1NC(=O)[C@@H](CCCNC(=N)N)NC(=O)[C@H](CC(C)C)NC(=O)[C@H]([C@H](O)C(C)C)NC(=O)[C@@H](NC(=O)[C@H](CC(C)C)NC(=O)[C@H](N)Cc2ccccc2)[C@@H](c2ccccc2)OC(=O)[C@H](CO)NC(=O)[C@H]([C@H](O)C(N)=O)NC(=O)CNC(=O)[C@H]([C@H](C)O)NC1=O [Example 38, D-Phenylalanyl-de(1-D-leucyl)lysobactin bistrifluoracetate] (H-[dF]L[Phe(3R-OH)][Leu(3R-OH)]L[dR]I[aThr]G[Asn(3S-OH)]S; ester 3-C) | 0.125 (≈ 0.0954 µM) | 0.063 (≈ 0.0481 µM) | 0.5 (≈ 0.382 µM) | 1 (≈ 0.763 µM) |  |  |  | 
2 | CC[C@H](C)[C@@H]1NC(=O)[C@@H](CCCNC(=N)N)NC(=O)[C@H](CC(C)C)NC(=O)[C@H]([C@H](O)C(C)C)NC(=O)[C@@H](NC(=O)[C@H](Cc2ccccc2)NC(=O)[C@H](N)CC(C)C)[C@@H](c2ccccc2)OC(=O)[C@H](CO)NC(=O)[C@H]([C@H](O)C(N)=O)NC(=O)CNC(=O)[C@H]([C@H](C)O)NC1=O.O=C(O)C(F)(F)F.O=C(O)C(F)(F)F [Example 74, D-Leucyl-L-phenylalanyl-de(1-D-leucyl-2-L-leucyl)lysobactin bistrifluoroacetate] (H-[dL]F[Phe(3R-OH)][Leu(3R-OH)]L[dR]I[aThr]G[Asn(3S-OH)]S; ester 3-C) | 0.125 | 0.063 | 0.5 | 1 |  |  |  | 
3 | CC[C@H](C)[C@@H]1NC(=O)[C@@H](CCCNC(=N)N)NC(=O)[C@H](CC(C)C)NC(=O)[C@H]([C@H](O)C(C)C)NC(=O)[C@@H](NC(=O)[C@H](CC(C)C)NC(=O)[C@@H](N)C[Si](C)(C)C)[C@@H](c2ccccc2)OC(=O)[C@H](CO)NC(=O)[C@H]([C@H](O)C(N)=O)NC(=O)CNC(=O)[C@H]([C@H](C)O)NC1=O [Example 30, [3-(Trimethylsilyl)-L-alanyl]-de(1-D-leucyl)lysobactin bistrifluoroacetate] (H-[Ala(SiMe3)]L[Phe(3R-OH)][Leu(3R-OH)]L[dR]I[aThr]G[Asn(3S-OH)]S; ester 3-C) | 0.25 (≈ 0.191 µM) | 0.25 (≈ 0.191 µM) | 0.5 (≈ 0.383 µM) | 1 (≈ 0.765 µM) |  |  |  | 
4 | CC[C@H](C)C1NC(=O)[C@@H](CCCNC(=N)N)NC(=O)[C@H](CC(C)C)NC(=O)[C@H]([C@H](O)C(C)C)NC(=O)[C@@H](NC(=O)[C@H](CC(=O)OC(C)(C)C)NC(=O)[C@H](N)CC(C)(C)C)[C@@H](c2ccccc2)OC(=O)[C@H](CO)NC(=O)[C@H]([C@H](O)C(N)=O)NC(=O)CNC(=O)[C@H]([C@H](C)O)NC1=O.O=C(O)C(F)(F)F.O=C(O)C(F)(F)F (stereo partly drawn) [Example 101, (2S)-2-[(3-tert-Butyl-D-alanyl)amino]-4-tert-butoxy-4-oxobutanoyl-de(1-D-leucyl-2-L-leucyl)lysobactin bistri-fluoroacetate] (H-[d(tBuAla)]D(OtBu)[Phe(3R-OH)][Leu(3R-OH)]L[dR][ξIle][aThr]G[Asn(3S-OH)]S; ester 3-C) |  |  |  |  | 1 | 0.5 | 1 | 1
5 | CC[C@H](C)[C@@H]1NC(=O)[C@@H](CCCNC(=N)N)NC(=O)[C@H](CC(C)C)NC(=O)[C@H]([C@H](O)C(C)C)NC(=O)[C@@H](NC(=O)[C@H](CC(C)(C)C)NC(=O)[C@H](N)CC(C)(C)C)[C@@H](c2ccccc2)OC(=O)[C@H](CO)NC(=O)[C@H]([C@H](O)C(N)=O)NC(=O)CNC(=O)[C@H]([C@H](C)O)NC1=O.O=C(O)C(F)(F)F.O=C(O)C(F)(F)F [Example 68] (H-[d(tBuAla)][tBuAla][Phe(3R-OH)][Leu(3R-OH)]L[dR]I[aThr]G[Asn(3S-OH)]S; ester 3-C) | 0.125 | 0.031 | 0.5 | 0.5 |  |  |  | 

Reference: patent US7368424B2, “Acylated nonadepsipeptides” (AiCuris GmbH & Co. KG, priority 2003, dated 2008)
